One assay concerns the target human plasma kallikrein (Homo sapiens (Human), UniProt P03952). Description: Determination of the plasma kallikrein activity (fluorogenic peptide substrate H-Pro-Phe-Arg-AMC). The assay is classed as biochemical. The following applies: Table B; plasma kallikrein inhibition, 30 min at 22° C., fluorescence. As to the method: To determine the plasma kallikrein inhibition of the substances according to the invention, a biochemical test system is used which utilizes the reaction of a peptidic plasma kallikrein substrate to determine the enzymatic activity of human plasma kallikrein. Here, plasma kallikrein cleaves from the peptic plasma kallikrein substrate the C-terminal aminomethylcoumarin (AMC), the fluorescence of which is measured. The determinations are carried out in microtitre plates.
1 μl of the diluted substance solutions is placed into each of the wells of white microtitre plates from Greiner (384 wells). 20 μl of assay buffer (50 mM Tris/HCl pH 7.4; 100 mM sodium chloride solution; 5 mM of calcium chloride solution; 0.1% of bovine serum albumin) and 20 μl of plasma kallikrein from Kordia (0.6 nM in assay buffer) are then added successively. After 15 min of incubation, the enzyme reaction is started by addition of 20 μl of the substrate H-Pro-Phe-Arg-AMC dissolved in assay buffer (10 μM in assay buffer) from Bachem, the mixture is incubated at room temperature (22° C.) for 30 min and fluorescence is then measured (excitation: 360 nm, emission: 460 nm). The measured emissions of the test batches with test substance are compared to those of control batches without test substance (only dimethyl sulphoxide instead of test substance in dimethyl sulphoxide), and IC50 values are calculated from the concentration/activity relationships.

A further assay addresses human factor XIa (Homo sapiens (Human), UniProt P03951). Description: Measurement of FXIa inhibition (fluorogenic peptide substrate Boc-Glu(OBzl)-Ala-Arg-AMC). The assay is classed as biochemical. The following applies: Table A, 30 min at 22° C., fluorescence. As to the method: The factor XIa inhibition of the substances according to the invention is determined using a biochemical test system which utilizes the reaction of a peptidic factor XIa substrate to determine the enzymatic activity of human factor XIa. Here, factor XIa cleaves from the peptic factor XIa substrate the C-terminal aminomethylcoumarin (AMC), the fluorescence of which is measured. The determinations are carried out in microtitre plates.
1 μl of the diluted substance solutions is placed into each of the wells of white microtitre plates from Greiner (384 wells). […] After […] of incubation, the enzyme reaction is started by addition of 20 μl of the factor XIa substrate Boc-Glu(OBzl)-Ala-Arg-AMC dissolved in assay buffer (10 μM in assay buffer) from Bachem, the mixture is incubated at room temperature (22° C.) for 30 min and fluorescence is then measured (excitation: 360 nm, emission: 460 nm). The measured emissions of the test batches with test substance are compared to those of control batches without test substance (only dimethyl sulphoxide instead of test substance in dimethyl sulphoxide), and IC50 values are calculated from the concentration/activity relationships.

SMILES strings stand for the structures.

16 compounds from US10167280B2, “Substituted oxopyridine derivatives” (BAYER PHARMA AKTIENGESELLSCHAFT, priority 2014, dated 2019) can be followed below.

Sequence of human factor XIa (P03951 388-625): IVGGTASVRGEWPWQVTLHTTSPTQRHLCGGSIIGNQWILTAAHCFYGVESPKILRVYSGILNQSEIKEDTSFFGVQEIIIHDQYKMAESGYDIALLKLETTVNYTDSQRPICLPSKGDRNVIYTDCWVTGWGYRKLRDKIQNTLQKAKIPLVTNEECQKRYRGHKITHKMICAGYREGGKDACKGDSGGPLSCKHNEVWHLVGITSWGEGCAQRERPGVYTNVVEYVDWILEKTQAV
Sequence of human factor XIa (P03951 19-387 partner): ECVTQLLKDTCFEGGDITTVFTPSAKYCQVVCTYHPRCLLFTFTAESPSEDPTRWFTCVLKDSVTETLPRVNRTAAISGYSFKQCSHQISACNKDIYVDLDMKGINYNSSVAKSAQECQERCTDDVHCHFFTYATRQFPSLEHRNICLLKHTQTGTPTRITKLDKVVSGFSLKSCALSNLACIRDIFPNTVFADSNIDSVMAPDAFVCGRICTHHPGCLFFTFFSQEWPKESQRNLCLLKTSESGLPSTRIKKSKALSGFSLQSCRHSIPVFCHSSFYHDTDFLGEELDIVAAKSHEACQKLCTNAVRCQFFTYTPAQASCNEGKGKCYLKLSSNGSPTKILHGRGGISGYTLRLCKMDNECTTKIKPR
Sequence of human plasma kallikrein (P03952 391-638): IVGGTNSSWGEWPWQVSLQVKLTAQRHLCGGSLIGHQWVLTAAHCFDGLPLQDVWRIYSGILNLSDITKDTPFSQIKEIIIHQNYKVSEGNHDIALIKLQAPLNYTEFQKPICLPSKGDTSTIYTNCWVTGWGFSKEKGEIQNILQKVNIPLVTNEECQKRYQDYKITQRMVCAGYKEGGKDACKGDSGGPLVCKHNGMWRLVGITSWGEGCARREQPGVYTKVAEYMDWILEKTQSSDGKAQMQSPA
Sequence of human plasma kallikrein (P03952 20-390 partner): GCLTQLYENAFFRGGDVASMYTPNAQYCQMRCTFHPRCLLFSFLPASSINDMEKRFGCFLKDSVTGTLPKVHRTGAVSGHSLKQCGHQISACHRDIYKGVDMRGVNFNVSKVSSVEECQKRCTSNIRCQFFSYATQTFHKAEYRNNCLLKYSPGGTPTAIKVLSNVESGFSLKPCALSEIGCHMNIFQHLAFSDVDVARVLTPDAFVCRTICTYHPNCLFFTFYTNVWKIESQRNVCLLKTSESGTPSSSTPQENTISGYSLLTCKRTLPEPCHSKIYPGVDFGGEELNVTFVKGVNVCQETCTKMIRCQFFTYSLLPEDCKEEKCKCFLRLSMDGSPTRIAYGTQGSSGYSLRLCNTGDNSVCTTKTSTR

In the case of `CNC(=O)c1ccc(NC(=O)C(Cc2ccn(C)n2)n2cc(OC)c(-c3cc(F)ccc3C#N)cc2=O)cn1` (racemic) [Example 49, 5-({2-[4-(2-Cyano-5-fluorophenyl)-5-methoxy-2-oxopyridin-1(2H)-yl]-3-(1-methyl-1H-pyrazol-3-yl)propanoyl}amino)-N-methylpyridine-2-carboxamide (racemate)], the IC50 (as a rule, the concentration at which inhibition is half-maximal) turned out to be 130 nM on human plasma kallikrein and 160 nM against human factor XIa.
For `N#Cc1ccc(Cl)cc1-c1cc(=O)n(C(Cc2cnco2)C(=O)Nc2ccc(C(N)=O)nc2)cc1OC(F)F` (centres unmarked) [Example 12] the same measures were 640 nM and 210 nM.
Taken in the same sequence, the figures for `CNC(=O)c1ccc(NC(=O)C(CCOC)n2cc(Cl)c(-c3cc(Cl)ccc3C#N)cc2=O)cn1` (centres unmarked) [Example 15] were 53 nM and 23 nM.
For `COc1cn(C(Cc2cocn2)C(=O)Nc2ccc(C(N)=O)nc2)c(=O)cc1-c1cc(Cl)ccc1C#N` (centres unmarked) [Example 11] the same measures were 52 nM and 48 nM.
For `N#Cc1ccc(Cl)cc1-c1cc(=O)n(C(Cc2cnco2)C(=O)Nc2ccc(C(N)=O)nc2)cc1Cl` (centres unmarked) [Example 16], the IC50 worked out at 89 nM at human plasma kallikrein and 32 nM at human factor XIa.
On to `CCC(C(=O)Nc1ccc(C(N)=O)nc1)n1cc(OC)c(-c2cc(Cl)ccc2C#N)cc1=O` (centres unmarked) [Example 1], for which the IC50 on human plasma kallikrein is 22 nM; at human factor XIa it was 20 nM.
Taken in the same sequence, the figures for `N#Cc1ccc(Cl)cc1-c1cc(=O)n(C(Cc2cocn2)C(=O)Nc2ccc(C(N)=O)nc2)cc1Cl` (centres unmarked) [Example 10] were 470 nM and 210 nM.
Taken in the same sequence, the figures for `N#Cc1ccc(Cl)cc1-c1cc(=O)n(C(Cc2ccccn2)C(=O)Nc2ccc(C(N)=O)nc2)cc1OC(F)F` (centres unmarked) [Example 7] were 490 nM and 160 nM.
On to `CCC(C(=O)Nc1ccc(C(=O)NC)nc1)n1cc(OC)c(-c2cc(Cl)ccc2C#N)cc1=O` (centres unmarked) [Example 2], for which the IC50 was 16 nM at human plasma kallikrein and 20 nM against human factor XIa.
Taken in the same sequence, the figures for `COc1cn(C(Cc2cc(C)no2)C(=O)Nc2ccc(C(N)=O)nc2)c(=O)cc1-c1cc(Cl)ccc1F` (centres unmarked) [Example 14] were 160 nM and 390 nM.
`CNC(=O)c1ccc(NC(=O)C(C[C@@H]2CCCCO2)n2cc(Cl)c(-c3cc(Cl)ccc3C#N)cc2=O)cn1` (some centres unmarked) [Example 5]: the IC50 at human plasma kallikrein stood at 120 nM; against human factor XIa, 12 nM.
On to `COc1cn(C(Cc2cccnc2)C(=O)Nc2ccc(C(N)=O)nc2)c(=O)cc1-c1cc(Cl)ccc1C#N` (centres unmarked) [Example 8], for which the results for the IC50 on human plasma kallikrein and against human factor XIa were 6 nM and 11 nM, respectively.
Turning to `COc1cn(C(Cc2ccccn2)C(=O)Nc2ccc(C(N)=O)nc2)c(=O)cc1-c1cc(Cl)ccc1F` (centres unmarked) [Example 13], the IC50 is 250 nM at human plasma kallikrein and 220 nM at human factor XIa.
For the compound `N#Cc1ccc(Cl)cc1-c1cc(=O)n(C(C[C@@H]2CCCCO2)C(=O)Nc2ccc(C(N)=O)nc2)cc1Cl` (some centres unmarked) [Example 4], the results for the half-inhibitory concentration (IC50) on human plasma kallikrein and at human factor XIa were 140 nM and 16 nM, respectively.
For `CNC(=O)c1ccc(NC(=O)C(Cc2ccn(C)n2)n2cc(C3CC3)c(-c3cc(Cl)ccc3C#N)cc2=O)cn1` (racemic) [Example 51, 5-({2-[4-(5-Chloro-2-cyanophenyl)-5-cyclopropyl-2-oxopyridin-1(2H)-yl]-3-(1-methyl-1H-pyrazol-3-yl)propanoyl}amino)-N-methylpyridine-2-carboxamide (racemate)] the same measures were 80 nM and 200 nM.
`COCCC(C(=O)Nc1ccc(C(N)=O)nc1)n1cc(Cl)c(-c2cc(Cl)ccc2C#N)cc1=O` (centres unmarked) [Example 3]: the IC50 was 100 nM on human plasma kallikrein and 29 nM at human factor XIa.
